Source: patent US12558337B2, “Formulations comprising melflufen” (ON[…], priority 2019, dated 2026)
Structures can show the parent of a compound that is named as a salt.

Assay: Stability of liquid formulations containing a melflufen salt and propylene glycol at room temperature (HPLC-MS)
Assay type: physicochemical
Settings: for Purity of melfufen in the liquid formulation containing a melfufen salt and propylene glycol at RT: 20 mg/mL in propylene glycol, RT (20-25° C.); for stability on storage: in propylene glycol, room temperature (RT), over 7 weeks
Method: The solubility and stability of ethanesulfonic acid, p-toluenesulfonic acid and hydrochloric acid salts of melflufen in propylene glycol were investigated. 10 mg of each melflufen salt was transferred to transparent 4 mL vials and propylene glycol (Merck Lot # K51750378936, 1.07478.2500) was added to a concentration of 20 mg/mL. The vials were shaken for a short time and stored at room temperature (RT, 20-25° C.).
The stability of the melflufen salt solutions were analysed at weekly time points by Analytical HPLC-MS using an Agilent 1100 series Liquid Chromatograph/Mass Selective Detector (MSD) (Single Quadrupole) equipped with an electrospray interface and a UV diode array detector. Analysis was performed by using an ACE 3 C8 (3.0×50 mm) column with a gradient of 10-97% acetonitrile in 0.1% aqueous TFA over 3 min and a flow of 1 mL/min. UV was monitored at 305 nm. At each time point (0, 1, 2, 3, 4, 5, 6 and 7 weeks) 10 μL of the melflufen solution was diluted with 490 μL of acetonitrile before HPLC-MS analysis.

CCOC(=O)[C@H](Cc1ccc(F)cc1)NC(=O)[C@@H](N)Cc1ccc(N(CCCl)CCCl)cc1.CCS(=O)(=O)O [melflufen ethanesulfonic acid salt, ethanesulfonic acid;ethyl (2S)-2-[[(2S)-2-amino-3-[4-[bis(2-chloroethyl)amino]phenyl]propanoyl]amino]-3-(4-fluorophenyl)propanoate]
Purity of melfufen in the liquid formulation containing a melfufen salt and propylene glycol at RT (0 weeks): 100 % relative peak area | Purity of melfufen in the liquid formulation containing a melfufen salt and propylene glycol at RT (1 week): 95 % relative peak area | Purity of melfufen in the liquid formulation containing a melfufen salt and propylene glycol at RT (2 weeks): 94 % relative peak area | Purity of melfufen in the liquid formulation containing a melfufen salt and propylene glycol at RT (3 weeks): 93 % relative peak area | Purity of melfufen in the liquid formulation containing a melfufen salt and propylene glycol at RT (4 weeks): 94 % relative peak area | Purity of melfufen in the liquid formulation containing a melfufen salt and propylene glycol at RT (5 weeks): 89 % relative peak area | Purity of melfufen in the liquid formulation containing a melfufen salt and propylene glycol at RT (6 weeks): 88 % relative peak area | Purity of melfufen in the liquid formulation containing a melfufen salt and propylene glycol at RT (7 weeks): 87 % relative peak area | stability on storage: good stability

CCOC(=O)[C@H](Cc1ccc(F)cc1)NC(=O)[C@@H](N)Cc1ccc(N(CCCl)CCCl)cc1 [melflufen hydrochloric acid salt, L-Melphalanyl-4-fluoro-L-phenylalanine ethyl ester, reference compound]
Purity of melfufen in the liquid formulation containing a melfufen salt and propylene glycol at RT (0 weeks): 100 % relative peak area | Purity of melfufen in the liquid formulation containing a melfufen salt and propylene glycol at RT (1 week): 100 % relative peak area | Purity of melfufen in the liquid formulation containing a melfufen salt and propylene glycol at RT (2 weeks): 95 % relative peak area | Purity of melfufen in the liquid formulation containing a melfufen salt and propylene glycol at RT (3 weeks): 94 % relative peak area | Purity of melfufen in the liquid formulation containing a melfufen salt and propylene glycol at RT (4 weeks): 92 % relative peak area | Purity of melfufen in the liquid formulation containing a melfufen salt and propylene glycol at RT (5 weeks): 89 % relative peak area | Purity of melfufen in the liquid formulation containing a melfufen salt and propylene glycol at RT (6 weeks): 87 % relative peak area | Purity of melfufen in the liquid formulation containing a melfufen salt and propylene glycol at RT (7 weeks): 85 % relative peak area | stability on storage: good stability

CCOC(=O)[C@H](Cc1ccc(F)cc1)NC(=O)[C@@H](N)Cc1ccc(N(CCCl)CCCl)cc1.Cc1ccc(S(=O)(=O)O)cc1 [melflufen p-toluenesulfonic acid salt, Ethyl (2S)-2-[[(2S)-2-amino-3-[4-[bis(2-chloroethyl)amino]phenyl]propanoyl]amino]-3-(4-fluorophenyl)propanoate;4-methylbenzenesulfonic acid]
Purity of melfufen in the liquid formulation containing a melfufen salt and propylene glycol at RT (0 weeks): 100 % relative peak area | Purity of melfufen in the liquid formulation containing a melfufen salt and propylene glycol at RT (1 week): 96 % relative peak area | Purity of melfufen in the liquid formulation containing a melfufen salt and propylene glycol at RT (2 weeks): 95 % relative peak area | Purity of melfufen in the liquid formulation containing a melfufen salt and propylene glycol at RT (3 weeks): 93 % relative peak area | Purity of melfufen in the liquid formulation containing a melfufen salt and propylene glycol at RT (4 weeks): 91 % relative peak area | Purity of melfufen in the liquid formulation containing a melfufen salt and propylene glycol at RT (5 weeks): 89 % relative peak area | Purity of melfufen in the liquid formulation containing a melfufen salt and propylene glycol at RT (6 weeks): 88 % relative peak area | Purity of melfufen in the liquid formulation containing a melfufen salt and propylene glycol at RT (7 weeks): 87 % relative peak area | stability on storage: good stability
